From patent US20240132484A1, “BROAD SPECTRUM ANTIVIRAL COMPOUNDS TARGETING THE SKI COMPLEX” (priority 2020, published 2024)

How the values were obtained:
[1] = system: SARS2; format: cell-based, SARS-CoV-2; details: for Percentage Inhibition Average 1 μM / Screening data (Relative infection to DMSO controls) Average 1 μM: SARS2, 1 μM; for Screening data (Relative infection to DMSO controls) Average 1 μM / Screening data (Relative infection to DMSO controls) Average 5 μM / Screening data (Relative infection to DMSO controls) Average 10 μM / Screening data (Relative infection to DMSO controls) Average 25 μM / Screening data (Relative infection to DMSO controls) Average 50 μM / Average (relative infection to DMSO over the 5 tested concentrations): 100=DMSO control; for Percentage Inhibition Average 5 μM / Screening data (Relative infection to DMSO controls) Average 5 μM: SARS2, 5 μM; for Percentage Inhibition Average 10 μM / Screening data (Relative infection to DMSO controls) Average 10 μM: SARS2, 10 μM; for Percentage Inhibition Average 25 μM / Screening data (Relative infection to DMSO controls) Average 25 μM: SARS2, 25 μM; for Percentage Inhibition Average 50 μM / Screening data (Relative infection to DMSO controls) Average 50 μM: SARS2, 50 μM; for Average (relative infection to DMSO over the 5 tested concentrations): SARS2, average over 1 to 50 uM
[2] = system: cells (nuclei count); details: for Relative cell count to DMSO controls, Average 1 μM / Relative cell count to DMSO controls, Average 5 μM / Relative cell count to DMSO controls, Average 10 μM / Relative cell count to DMSO controls, Average 25 μM / Relative cell count to DMSO controls, Average 50 μM: toxicity data, 100=DMSO control; for Relative cell count to DMSO controls, Average (for correlation analysis): average value over the 5 tested concentrations (1 to 50 uM)

SMILES | Percentage Inhibition Average 1 μM [1] | Screening data (Relative infection to DMSO controls) Average 1 μM [1] | Percentage Inhibition Average 5 μM [1] | Screening data (Relative infection to DMSO controls) Average 5 μM [1] | Percentage Inhibition Average 10 μM [1] | Screening data (Relative infection to DMSO controls) Average 10 μM [1] | Percentage Inhibition Average 25 μM [1] | Screening data (Relative infection to DMSO controls) Average 25 μM [1] | Percentage Inhibition Average 50 μM [1] | Screening data (Relative infection to DMSO controls) Average 50 μM [1] | Average (relative infection to DMSO over the 5 tested concentrations) [1] | Relative cell count to DMSO controls, Average 1 μM [2] | Relative cell count to DMSO controls, Average 5 μM [2] | Relative cell count to DMSO controls, Average 10 μM [2] | Relative cell count to DMSO controls, Average 25 μM [2] | Relative cell count to DMSO controls, Average 50 μM [2] | Relative cell count to DMSO controls, Average (for correlation analysis) [2]
COCC1=C(C(=O)NCC2CCC2)C(c2cccs2)NC(=O)N1 (stereo not drawn) [SILCS56] | 31.59% | 68.41 | 44.15% | 55.85 | 29.24% | 70.76 | 2.27% | 97.73 | −21.04% | 121.04 | 82.76 | 120.34 | 119.22 | 119.65 | 104.41 | 89.59 | 110.64
COc1ccc(C2NC(=O)NC(C)=C2C(=O)NC2CCCCCC2)cc1OC (stereo not drawn) [SILCS59] | 29.42% | 70.58 | 33.20% | 66.80 | 16.88% | 83.12 | −8.59% | 108.59 | −28.37% | 128.37 | 91.49 | 115.37 | 119.78 | 116.3 | 100.03 | 86.44 | 107.58
COc1ccc(-c2[nH]ncc2C(=O)NC2CCCCCC2)cc1OC [SILCS60] | 20.62% | 79.38 | 26.35% | 73.65 | 26.47% | 73.53 | 1.46% | 98.54 | −22.52% | 122.52 | 89.52 | 111.59 | 110.17 | 109.31 | 96.61 | 85.19 | 102.57
